Assays:
[1] = tested on: human stomach cancer cells (MKN-45); test: Experiment 3: pharmacokinetics of Cupid-scFv antibody (48 h before)+^211At-psyche-B in MKN-45 cancer-bearing mouse models; type: in vivo, mice (BALB/cSlc nu/nu)
Experimental: The present experiment highly used CEA-expressing human stomach cancer cells (MKN-45). 9-week-old male immunodeficient mice (BALB/cSlc nu/nu) were used. MKN-45 cells (1×10^7/0.1 ml) were transplanted into the mice's subcutis on the right shoulder dorsal side to produce cancer-bearing mouse models. The mice were divided into four groups when the tumor volume became a predetermined size (on Day 12 after the transplantation). A Cupid-scFv antibody was administered in 100 μmol/0.1 ml via the caudal vein of each mouse. Forty-eight hours after administration of the Cupid-scFv antibody, ^211At-psyche-B (about 0.25 MBq/100 ml) was administered via the caudal vein of the mice. One minute, 1 hour, 6 hours, and 24 hours after administration of the ^211At-psyche-B, the mice were euthanized by collecting whole blood from the heart of each mouse under isoflurane anesthesia, and tumor tissues and normal tissues/organs were then excised. Normal tissues/organs: skin (lower right limb), muscle (right gastrocnemius muscle), heart, lung, spleen, pancreas, white fat (upper portion of right side testis), testis (both sides), stomach, stomach contents, small intestine (including contents), large intestine (including contents), liver, brown fat (interscapular), submandibular gland, thyroid gland (together with trachea), bone (right femur), cerebrum, eyeballs (both sides), bladder, and urine; the remaining residues were divided into three equal parts, and the three equal parts were defined to be residue-1, residue-2, and residue-3. After that, the weights of blood, plasma, urine, tumor, and normal tissues/organs were measured, and the radioactivity thereof was then measured using a γ counter. The amounts of the ^211At-psyche-B (radioactivity) accumulated in the blood, plasma, urine, tumor, and normal tissues/organs were calculated. That is to say, the rates (% ID/g) of the ^211At-psyche-B accumulated per unit weight (g) of the blood, plasma, urine, tumor, and normal tissues/organs, in the administered ^211At-psyche-B, were shown. Regarding accumulation of the ^211At-psyche-B in the thyroid gland, since the weight of the thyroid gland could not be precisely measured, it was shown that the rate (% ID) of the ^211At-psyche-B accumulated in the thyroid gland in the administered ^211At-psyche-B.

[2] = tested on: human stomach cancer cells (MKN-45); test: Experiment 4: pharmacokinetics of ^211At-psyche-B in the absence of Cupid-scFv antibody in MKN-45 cancer-bearing mouse models; type: in vivo, mice (BALB/cSlc nu/nu); conditions: no Cupid-scFv antibody
Experimental: The present experiment used human stomach cancer cells (MKN-45) expressing carcinoembryonic antigen (CEA). 9-week-old male immunodeficient mice (BALB/cSlc nu/nu) were used. MKN-45 cells (1×10^7/0.1 ml) were transplanted into the mice's subcutis on the right shoulder dorsal side to produce cancer-bearing mouse models. The mice were divided into four groups when the tumor volume became a predetermined size (on Day 14 after the transplantation), and ^211At-psyche-B (about 0.25 MBq/[…]) was administered via the caudal vein of each mouse. One minute, 1 hour, 6 hours, and 24 hours after administration of the ^211At-psyche-B, the mice were euthanized by collecting whole blood from the heart of each mouse under isoflurane anesthesia, and tumor tissues and normal tissues/organs were then excised. Normal tissues/organs: skin (lower right limb), muscle (right gastrocnemius), heart, lung, spleen, pancreas, white fat (upper portion of right side testis), testis (both sides), stomach, stomach contents, small intestine (including contents), large intestine (including contents), liver, brown fat (interscapular), submandibular gland, thyroid gland (together with trachea), bone (right femur), brain, eyeball, bladder, and urine; the remaining residues were divided into three equal parts, and the three equal parts were defined to be residue-1, residue-2, and residue-3. After that, the weights of blood, plasma, urine, tumor, and normal tissues/organs were measured, and the radioactivity thereof was then measured using a γ counter. The amounts of the ^211At-psyche-B (radioactivity) accumulated in the blood, plasma, urine, tumor, and normal tissues/organs were calculated. That is to say, the rates (% ID/g) of the ^211At-psyche-B accumulated per unit weight (g) of the blood, plasma, urine, tumor, and normal tissues/organs, in the administered ^211At-psyche-B, were shown. Regarding accumulation of the ^211At-psyche-B in the thyroid gland, since the weight of the thyroid gland could not be precisely measured, it was shown that the rate (% ID) of the ^211At-psyche-B accumulated in the thyroid gland in the administered ^211At-psyche-B.

N=C1N[C@H]2[C@H](CS[C@H]2CCCCC(=O)NCCCCCC(=O)Nc2cc(NC(=O)CCCCCNC(=O)CCCC[C@@H]3SC[C@@H]4NC(=N)N[C@@H]43)cc(C(=O)NCCOCCOCCNC(=O)c3cccc([211At])c3)c2)N1 [^211At-psyche-B]
Accumulation in the kidney ([1]; after 1 minute): 62.3±9.8 % ID/g | Accumulation in the liver ([1]; after 1 minute): 41.4±6.2 % ID/g | Accumulation in the lung ([1]; after 1 minute): 10.2±1.6 % ID/g | Accumulation in the spleen ([1]; after 1 minute): 3.5±0.1 % ID/g | Accumulation in the tumor ([1]; after 1 minute): 0.5±0.1 % ID/g | Clearance from the blood ([1]; after 1 minute): 30.7±2.2 % ID/g | tumor-to-blood ratio ([1]; after 1 minute): 0.02±0.00 | tumor-to-muscle ratio ([1]; after 1 minute): 1.0±0.3 | Accumulation in the kidney ([1]; after 1 hour): 38.0±4.5 % ID/g | Accumulation in the liver ([1]; after 1 hour): 25.6±2.5 % ID/g | Accumulation in the lung ([1]; after 1 hour): 12.2±0.9 % ID/g | Accumulation in the spleen ([1]; after 1 hour): 8.5±0.6 % ID/g | Accumulation in the tumor ([1]; after 1 hour): 3.2±0.7 % ID/g | Clearance from the blood ([1]; after 1 hour): 30.8±5.5 % ID/g | tumor-to-blood ratio ([1]; after 1 hour): 0.11±0.02 | tumor-to-muscle ratio ([1]; after 1 hour): 4.7±0.4 | Accumulation in the kidney ([1]; after 6 hours): 14.9±0.8 % ID/g | Accumulation in the liver ([1]; after 6 hours): 23.6±2.3 % ID/g | Accumulation in the lung ([1]; after 6 hours): 8.5±0.9 % ID/g | Accumulation in the spleen ([1]; after 6 hours): 11.1±0.7 % ID/g | Accumulation in the tumor ([1]; after 6 hours): 9.9±2.9 % ID/g | Clearance from the blood ([1]; after 6 hours): 19.0±2.6 % ID/g | tumor-to-blood ratio ([1]; after 6 hours): 0.51±0.09 | tumor-to-muscle ratio ([1]; after 6 hours): 13.1±3.5 | Accumulation in the thyroid gland ([1]; after 24 h): 0.16±0.02 % ID | Accumulation in the kidney ([1]; after 24 hours): 6.6±0.2% | Accumulation in the liver ([1]; after 24 hours): 19.3±0.6% | Accumulation in the lung ([1]; after 24 hours): 3.5±0.2% | Accumulation in the spleen ([1]; after 24 hours): 10.2±1.6% | Accumulation in the tumor ([1]; after 24 hours): 11.3±3.3% | Clearance from the blood ([1]; after 24 hours): 2.6±0.5 % ID/g | tumor-to-blood ratio ([1]; after 24 hours): 4.38±0.85 | tumor-to-muscle ratio ([1]; after 24 hours): 23.2±7.2 | Accumulation in the blood ([2]; after 1 minute): 10.4±1.1 % ID/g | Accumulation in the kidney ([2]; after 1 minute): 61.4±6.5 % ID/g | Accumulation in the liver ([2]; after 1 minute): 49.1±6.2 % ID/g | Accumulation in the tumor ([2]; after 1 minute): 0.3±0.05 % ID/g | Accumulation in the blood ([2]; after 1 hour): 3.8±0.3 % ID/g | Accumulation in the kidney ([2]; after 1 hour): 57.2±3.1 % ID/g | Accumulation in the liver ([2]; after 1 hour): 35.3±3.3 % ID/g | Accumulation in the tumor ([2]; after 1 hour): 1.0±0.1 % ID/g | Accumulation in the blood ([2]; after 6 hours): 0.4±0.1 % ID/g | Accumulation in the kidney ([2]; after 6 hours): 17.7±1.9 % ID/g | Accumulation in the liver ([2]; after 6 hours): 16.8±0.7 % ID/g | Accumulation in the thyroid gland ([2]; after 6 hours): 0.16±0.06 % ID | Accumulation in the tumor ([2]; after 6 hours): 1.0±0.1 % ID/g | Accumulation in the blood ([2]; after 24 hours): 0.2±0.04 % ID/g | Accumulation in the kidney ([2]; after 24 hours): 5.1±0.9% | Accumulation in the liver ([2]; after 24 hours): 9.0±1.4% | Accumulation in the tumor ([2]; after 24 hours): 0.3±0.02%
